Measured values reported in PubChem BioAssay AID1963874 (Molecular Pharmacology Branch, DTP, NCI, 2024).

Test system: 253994-281-T-J1-PDC KRAS-mutant spheroids with HUVEC/MSC, viability
Assay: Anticancer human tumor 253994-281-T-J1-PDC patient-derived colorectal carcinoma cell line growth inhibition [KRAS2]
Settings: for viability, T/C: stronger effect = lower value
How it was run: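 Combination screen of spheroid viability in tumor-cell co-cultures with endothelial (HUVEC) and mesenchymal stem cell stroma. Each agent was tested in half-log dilutions, topping at clinical Cmax or at 10 microM without a known Cmax.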

[1] = curve of first compound, second compound 0.1 µM
[2] = curve of first compound, second compound 0.316 µM
[3] = curve of first compound, second compound 1 µM
[4] = curve of first compound, second compound 3.16 µM
[5] = curve of first compound, second compound 10 µM
[6] = second compound 0.1 µM, first compound 0.0316 µM
[7] = second compound 0.1 µM, first compound 0.1 µM
[8] = second compound 0.1 µM, first compound 0.316 µM
[9] = second compound 0.1 µM, first compound 1 µM
[10] = second compound 0.1 µM, first compound 3.16 µM
[11] = second compound 0.1 µM, first compound 10 µM
[12] = second compound 0.316 µM, first compound 0.0316 µM
[13] = second compound 0.316 µM, first compound 0.1 µM
[14] = second compound 0.316 µM, first compound 0.316 µM
[15] = second compound 0.316 µM, first compound 1 µM
[16] = second compound 0.316 µM, first compound 3.16 µM
[17] = second compound 0.316 µM, first compound 10 µM
[18] = second compound 1 µM, first compound 0.0316 µM
[19] = second compound 1 µM, first compound 0.1 µM
[20] = second compound 1 µM, first compound 0.316 µM
[21] = second compound 1 µM, first compound 1 µM
[22] = second compound 1 µM, first compound 3.16 µM
[23] = second compound 1 µM, first compound 10 µM
[24] = second compound 3.16 µM, first compound 0.0316 µM
[25] = second compound 3.16 µM, first compound 0.1 µM
[26] = second compound 3.16 µM, first compound 0.316 µM
[27] = second compound 3.16 µM, first compound 1 µM
[28] = second compound 3.16 µM, first compound 3.16 µM
[29] = second compound 3.16 µM, first compound 10 µM
[30] = second compound 10 µM, first compound 0.0316 µM
[31] = second compound 10 µM, first compound 0.1 µM
[32] = second compound 10 µM, first compound 0.316 µM
[33] = second compound 10 µM, first compound 1 µM
[34] = second compound 10 µM, first compound 3.16 µM
[35] = second compound 10 µM, first compound 10 µM
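Also: spheroids exposed to agents for seven days before readout.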
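For viability, T/C in this document: percent of DMSO vehicle control viability.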

SMILES | IC50 [1] [µM] | IC50 [2] [µM] | IC50 [3] [µM] | IC50 [4] [µM] | IC50 [5] [µM] | viability, T/C [6] [%] | viability, T/C [7] [%] | viability, T/C [8] [%] | viability, T/C [9] [%] | viability, T/C [10] [%] | viability, T/C [11] [%] | viability, T/C [12] [%] | viability, T/C [13] [%] | viability, T/C [14] [%] | viability, T/C [15] [%] | viability, T/C [16] [%] | viability, T/C [17] [%] | viability, T/C [18] [%] | viability, T/C [19] [%] | viability, T/C [20] [%] | also measured
CC(C)NCC(C(=O)N1CCN(c2ncnc3c2C(C)CC3O)CC1)c1ccc(Cl)cc1 (stereo not drawn) + CC1OCC2(CCN(c3cnc(Sc4ccnc(N)c4Cl)c(N)n3)CC2)C1N | > 10 | > 10 | > 10 | > 10 | < 0.0316 | 107 | 101 | 99.8 | 90.7 | 85.2 | 85.8 | 95.1 | 91 | 86.4 | 84.7 | 101 | 84.3 | 84.7 | 77.9 | 72.9 | viability, T/C [21]: 83.5%; viability, T/C [22]: 83%; viability, T/C [23]: 93%; viability, T/C [24]: 57.8%; viability, T/C [25]: 59.5%; viability, T/C [26]: 63.9%; viability, T/C [27]: 70.6%; viability, T/C [28]: 77.7%; viability, T/C [29]: 84.3%; viability, T/C [30]: 36.3%; viability, T/C [31]: 41%; viability, T/C [32]: 41.1%; viability, T/C [33]: 51.9%; viability, T/C [34]: 58%; viability, T/C [35]: 55%
COc1cc(Nc2ncc3c(n2)-c2ccc(Cl)cc2C(c2c(F)cccc2OC)=NC3)ccc1C(=O)O + COc1cc2nc(C)nc(NC(C)c3cc(N)cc(C(F)(F)F)c3)c2cc1OC1CCOC1 | < 0.0316 | < 0.0316 | < 0.0316 | < 0.0316 | < 0.0316 | 63.4 | 29.7 | 26.6 | 35.2 | 39.9 | 38.6 | 51.4 | 26.8 | 26.5 | 33.1 | 35.2 | 33.6 | 49 | 34.3 | 22.4 | viability, T/C [21]: 27.5%; viability, T/C [22]: 31%; viability, T/C [23]: 34.5%; viability, T/C [24]: 50.1%; viability, T/C [25]: 30%; viability, T/C [26]: 26%; viability, T/C [27]: 29%; viability, T/C [28]: 41.7%; viability, T/C [29]: 45.1%; viability, T/C [30]: 38.3%; viability, T/C [31]: 31.4%; viability, T/C [32]: 25.7%; viability, T/C [33]: 31.6%; viability, T/C [34]: 35.7%; viability, T/C [35]: 29.1%
COC(=O)c1ccc2c(C(=Nc3ccc(N(C)C(=O)CN4CCN(C)CC4)cc3)c3ccccc3)c(O)[nH]c2c1 + CC1OCC2(CCN(c3cnc(Sc4ccnc(N)c4Cl)c(N)n3)CC2)C1N | > 10 | 3.48 | 1.46 | 0.156 | < 0.0316 | 97.8 | 87.2 | 82.7 | 85.3 | 81.8 | 70.7 | 82.7 | 67 | 68.9 | 85.2 | 53.2 | 15 | 53.8 | 50.9 | 62.1 | viability, T/C [21]: 51.7%; viability, T/C [22]: 43.3%; viability, T/C [23]: 17.8%; viability, T/C [24]: 56.1%; viability, T/C [25]: 52%; viability, T/C [26]: 42.9%; viability, T/C [27]: 40.7%; viability, T/C [28]: 26.8%; viability, T/C [29]: 1.64%; viability, T/C [30]: 35%; viability, T/C [31]: 35%; viability, T/C [32]: 31.4%; viability, T/C [33]: 20%; viability, T/C [34]: 4.21%; viability, T/C [35]: 0.83%
Cn1nccc1Nc1nccc(-c2cc3c(s2)C(C)(C)N(CCN2CCOCC2)C3=O)n1 |  |  |  |  |  |  |  |  |  |  |  |  |  |  |  |  |  |  |  |  | viability, T/C (compound 0.0316 µM): 99.1% [middle of 5 runs]; viability, T/C (compound 0.1 µM): 96.2% [middle of 5 runs]; viability, T/C (compound 0.316 µM): 100% [middle of 4 runs]; viability, T/C (compound 1 µM): 84.1% [middle of 5 runs]; viability, T/C (compound 3.16 µM): 53.9% [middle of 5 runs]; viability, T/C (compound 10 µM): 29.3% [middle of 5 runs]; IC50 (curve of compound): 3.52 µM [middle of 5 runs]
COC(=O)c1ccc2c(C(=Nc3ccc(N(C)C(=O)CN4CCN(C)CC4)cc3)c3ccccc3)c(O)[nH]c2c1 + C=CC(=O)N1CCN(c2nc(=O)n(-c3c(C)ccnc3C(C)C)c3nc(-c4c(O)cccc4F)c(F)cc23)C(C)C1 | > 10 | 5.61 | 5.47 | 4.8 | 4.3 | 124 | 115 | 98.4 | 98.2 | 86.8 | 60.1 | 100 | 99.4 | 92.3 | 92.7 | 83.7 | 15.8 | 121 | 108 | 96.7 | viability, T/C [21]: 92.9%; viability, T/C [22]: 75.5%; viability, T/C [23]: 26.1%; viability, T/C [24]: 104%; viability, T/C [25]: 108%; viability, T/C [26]: 91%; viability, T/C [27]: 90.2%; viability, T/C [28]: 76.2%; viability, T/C [29]: 9.17%; viability, T/C [30]: 111%; viability, T/C [31]: 116%; viability, T/C [32]: 101%; viability, T/C [33]: 86.9%; viability, T/C [34]: 73.4%; viability, T/C [35]: 0.56%
CC(=O)Nc1cccc(-n2c(=O)n(C3CC3)c(=O)c3c(Nc4ccc(I)cc4F)n(C)c(=O)c(C)c32)c1 |  |  |  |  |  |  |  |  |  |  |  |  |  |  |  |  |  |  |  |  | viability, T/C (compound 0.0001 µM): 94.1% [middle of 5 runs]; viability, T/C (compound 0.000316 µM): 84.7% [middle of 5 runs]; viability, T/C (compound 0.001 µM): 56.3% [middle of 5 runs]; viability, T/C (compound 0.00316 µM): 27.5% [middle of 5 runs]; viability, T/C (compound 0.01 µM): 15.5% [middle of 5 runs]; viability, T/C (compound 0.0316 µM): 6.86% [middle of 5 runs]; IC50 (curve of compound): 1.3 nM [middle of 5 runs]
CC(C)NCC(C(=O)N1CCN(c2ncnc3c2C(C)CC3O)CC1)c1ccc(Cl)cc1 (stereo not drawn) |  |  |  |  |  |  |  |  |  |  |  |  |  |  |  |  |  |  |  |  | viability, T/C (compound 0.0316 µM): 102% [middle of 5 runs]; viability, T/C (compound 0.1 µM): 107% [middle of 5 runs]; viability, T/C (compound 1 µM): 97.2% [middle of 5 runs]; viability, T/C (compound 10 µM): 89.9% [middle of 5 runs]; IC50 (curve of compound): > 10 µM
Cn1nccc1Nc1nccc(-c2cc3c(s2)C(C)(C)N(CCN2CCOCC2)C3=O)n1 + CNCc1ccccc1-c1csc(C(C)Nc2nc(C)nc3cc(OC)c(OC)cc23)c1 | 2.14 | 1.52 | 0.863 | < 0.0316 | < 0.0316 | 97.5 | 102 | 87.6 | 74.6 | 37.1 | 23.8 | 106 | 89.2 | 84 | 60.7 | 31.8 | 19.4 | 87.7 | 73.2 | 67.9 | viability, T/C [21]: 49.8%; viability, T/C [22]: 24%; viability, T/C [23]: 10%; viability, T/C [24]: 44.4%; viability, T/C [25]: 46.3%; viability, T/C [26]: 29.3%; viability, T/C [27]: 0.46%; viability, T/C [28]: 0.39%; viability, T/C [29]: 0.26%; viability, T/C [30]: 0.25%; viability, T/C [31]: 0.16%; viability, T/C [32]: 0.15%; viability, T/C [33]: 0.14%; viability, T/C [34]: 0.39%; viability, T/C [35]: 0.2%
C=CC(=O)N1CCN(c2nc(=O)n(-c3c(C)ccnc3C(C)C)c3nc(-c4c(O)cccc4F)c(F)cc23)C(C)C1 (stereo not drawn) |  |  |  |  |  |  |  |  |  |  |  |  |  |  |  |  |  |  |  |  | viability, T/C (compound 0.316 µM): 93.1% [middle of 17 runs]; IC50 (compound alone, run of 08/19/2021): > 10 µM; IC50 (compound alone, run of 08/26/2021): > 10 µM; IC50 (compound alone, run of 09/02/2021): > 10 µM
